From patent EP0451834B1, “Alpha-mannosidase and fucosidase inhibitors” (MERRELL PHARMACEUTICALS INC., priority 1990, dated 1991)

Target: T1, α-Mannosidase (Jack bean) (Canavalia ensiformis, UniProt C0HJB3)
T1 sequence (C0HJB3 1-981): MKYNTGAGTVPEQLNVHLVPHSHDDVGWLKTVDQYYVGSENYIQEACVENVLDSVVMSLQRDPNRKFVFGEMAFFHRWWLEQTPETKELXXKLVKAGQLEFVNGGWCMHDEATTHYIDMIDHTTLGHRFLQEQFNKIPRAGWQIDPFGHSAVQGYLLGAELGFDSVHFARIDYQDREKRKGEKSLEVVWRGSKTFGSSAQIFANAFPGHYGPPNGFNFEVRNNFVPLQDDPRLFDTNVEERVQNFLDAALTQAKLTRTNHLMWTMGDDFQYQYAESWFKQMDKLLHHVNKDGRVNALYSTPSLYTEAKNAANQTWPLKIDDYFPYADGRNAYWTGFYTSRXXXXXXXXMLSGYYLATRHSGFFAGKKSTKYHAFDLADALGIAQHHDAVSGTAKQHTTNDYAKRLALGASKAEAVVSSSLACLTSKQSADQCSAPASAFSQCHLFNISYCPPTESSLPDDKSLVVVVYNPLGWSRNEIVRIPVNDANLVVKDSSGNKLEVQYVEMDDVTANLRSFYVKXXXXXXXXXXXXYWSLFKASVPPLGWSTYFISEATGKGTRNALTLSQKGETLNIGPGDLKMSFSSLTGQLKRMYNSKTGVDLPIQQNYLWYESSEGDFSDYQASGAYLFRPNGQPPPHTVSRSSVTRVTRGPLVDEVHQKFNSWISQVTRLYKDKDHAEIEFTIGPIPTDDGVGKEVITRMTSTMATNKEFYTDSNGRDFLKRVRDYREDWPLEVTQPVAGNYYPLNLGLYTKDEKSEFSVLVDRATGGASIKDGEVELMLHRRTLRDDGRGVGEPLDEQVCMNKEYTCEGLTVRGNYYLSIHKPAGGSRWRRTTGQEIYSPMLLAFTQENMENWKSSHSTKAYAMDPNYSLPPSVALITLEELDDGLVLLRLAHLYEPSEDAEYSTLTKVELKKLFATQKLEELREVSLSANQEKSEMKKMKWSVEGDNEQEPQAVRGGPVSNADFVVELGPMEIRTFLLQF
Assay: Mannosidase screening assay (p-nitrophenyl-α-mannopyranoside substrate, absorbance at 405 nm)
Assay type: biochemical
Settings: Jack bean enzyme, sodium acetate buffer pH 4.5, 37° for 30 min
Experimental: This can be demostrated by the ability of the compound to inhibit Jack bean mannosidase or mannosidase II as follows: Mannosidase Screening Assay (Kang, et al., Plant Physiol. 71:551-554 (1983)). Activities of mannosidase are first screened with Jack bean enzyme using p-nitrophenyl substrate as follows using a 96-well microplate. Total Rxn mix 200µl. • 1. Add compounds to be tested and dilute to 100µl with H2O. • 2. Add 25µl of 1M sodium acetate buffer pH 4.5 containing 10mM ZnCl2. • 3. Add 25µl of enzyme or approximately 0.05 µg protein. • 4. Mix and incubate at R.T. for 30 min. • 5. Add 50µl of 10 mM p-nitrophenyl-α-mannopyranoside in H2O to start the Rxn and incubate 37° for 30 min. Stop reaction by addition 100µl of 0.2M (2%) sodium carbonate solution (pH∼12). Read absorbance at 405 nm.

Structure (SMILES): CN[C@@H]1[C@@H](O)[C@@H](O)[C@H](O)[C@H]1CO [1,3β,5β,R=CH3, (1α,2β,3β,4α,5β)-Methyl[2,3,4-trihydroxy-5-(hydroxymethyl)cyclopentyl]amine]
- IC50: 0.0621 µM
